The target in assay [1] is T1, hFAAH (Homo sapiens, UniProt O00519).
T1 construct: made in house
T1 sequence (O00519 1-579): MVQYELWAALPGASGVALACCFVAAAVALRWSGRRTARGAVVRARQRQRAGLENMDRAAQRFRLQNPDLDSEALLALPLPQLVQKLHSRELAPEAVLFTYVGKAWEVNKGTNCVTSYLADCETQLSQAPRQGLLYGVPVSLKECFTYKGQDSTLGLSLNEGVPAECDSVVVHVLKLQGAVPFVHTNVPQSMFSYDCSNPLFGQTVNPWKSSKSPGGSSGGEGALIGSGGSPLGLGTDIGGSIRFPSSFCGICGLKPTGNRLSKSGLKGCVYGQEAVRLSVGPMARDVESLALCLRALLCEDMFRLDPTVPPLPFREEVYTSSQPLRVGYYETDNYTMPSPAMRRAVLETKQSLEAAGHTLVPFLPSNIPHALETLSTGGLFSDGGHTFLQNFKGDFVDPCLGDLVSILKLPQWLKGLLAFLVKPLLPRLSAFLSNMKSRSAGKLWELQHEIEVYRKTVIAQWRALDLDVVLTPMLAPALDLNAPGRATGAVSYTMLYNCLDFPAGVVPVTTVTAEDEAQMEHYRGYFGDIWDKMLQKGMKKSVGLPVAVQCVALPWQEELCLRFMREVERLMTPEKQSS
Nature of the assay: hFAAH inhibition kinetics (KD, k2). The assay is classed as biochemical.

For assay [2], the target named is T1, hFAAH. In words: recombinant FAAH enzyme with fluorescent substrate OMP (hFAAH IC50, screen). The assay is classed as biochemical.
The target of another assay is T2, hsEH (Homo sapiens, UniProt P34913).
T2 sequence (P34913 1-555): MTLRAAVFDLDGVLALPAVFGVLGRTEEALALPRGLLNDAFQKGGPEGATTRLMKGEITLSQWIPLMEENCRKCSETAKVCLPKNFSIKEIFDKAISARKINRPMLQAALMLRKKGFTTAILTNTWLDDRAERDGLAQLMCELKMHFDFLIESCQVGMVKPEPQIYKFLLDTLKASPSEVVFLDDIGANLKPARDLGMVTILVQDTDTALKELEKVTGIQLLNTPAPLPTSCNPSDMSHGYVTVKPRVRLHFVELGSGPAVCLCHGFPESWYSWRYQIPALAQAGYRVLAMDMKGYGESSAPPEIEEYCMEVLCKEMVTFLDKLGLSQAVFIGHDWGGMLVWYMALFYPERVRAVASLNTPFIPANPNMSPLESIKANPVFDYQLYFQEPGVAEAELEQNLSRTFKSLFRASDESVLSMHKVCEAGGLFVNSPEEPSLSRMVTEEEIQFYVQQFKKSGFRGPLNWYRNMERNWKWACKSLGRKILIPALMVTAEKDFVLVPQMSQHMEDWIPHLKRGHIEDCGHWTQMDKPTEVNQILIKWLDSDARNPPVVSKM
In words: human sEH inhibition (hsEH IC50). Format: biochemical.

A further assay has as its target T3, MAGL (Homo sapiens, UniProt Q99685).
T3 sequence (Q99685 1-303): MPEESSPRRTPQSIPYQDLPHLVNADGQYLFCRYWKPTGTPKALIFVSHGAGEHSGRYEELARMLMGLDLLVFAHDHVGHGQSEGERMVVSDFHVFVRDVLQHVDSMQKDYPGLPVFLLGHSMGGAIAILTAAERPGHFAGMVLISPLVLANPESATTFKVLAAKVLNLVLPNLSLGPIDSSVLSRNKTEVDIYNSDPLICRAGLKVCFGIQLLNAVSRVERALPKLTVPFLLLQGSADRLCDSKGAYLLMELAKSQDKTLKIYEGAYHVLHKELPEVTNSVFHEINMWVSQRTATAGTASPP
Nature of the assay: serine hydrolase selectivity panel: MAGL.

The target of another assay is T4, sEH (Rattus norvegicus, UniProt P80299).
T4 sequence (P80299 1-554): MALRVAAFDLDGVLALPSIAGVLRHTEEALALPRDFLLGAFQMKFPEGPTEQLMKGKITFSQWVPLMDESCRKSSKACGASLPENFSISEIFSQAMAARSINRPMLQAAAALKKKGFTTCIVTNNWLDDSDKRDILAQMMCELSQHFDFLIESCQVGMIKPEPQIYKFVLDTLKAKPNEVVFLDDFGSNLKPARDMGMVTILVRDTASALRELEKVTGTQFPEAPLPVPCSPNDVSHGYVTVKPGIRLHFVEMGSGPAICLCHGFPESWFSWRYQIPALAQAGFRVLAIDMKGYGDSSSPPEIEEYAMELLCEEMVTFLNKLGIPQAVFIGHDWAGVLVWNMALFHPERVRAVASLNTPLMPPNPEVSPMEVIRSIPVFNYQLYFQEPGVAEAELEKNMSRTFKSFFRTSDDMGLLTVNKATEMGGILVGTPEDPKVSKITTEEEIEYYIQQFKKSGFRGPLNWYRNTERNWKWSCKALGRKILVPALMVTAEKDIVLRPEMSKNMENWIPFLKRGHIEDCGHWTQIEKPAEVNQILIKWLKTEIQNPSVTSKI
In words: biochemical.

In the next assay the target is T5, FAAH (Felis catus, UniProt A0ABI8A862).
T5 sequence (A0ABI8A862 1-541): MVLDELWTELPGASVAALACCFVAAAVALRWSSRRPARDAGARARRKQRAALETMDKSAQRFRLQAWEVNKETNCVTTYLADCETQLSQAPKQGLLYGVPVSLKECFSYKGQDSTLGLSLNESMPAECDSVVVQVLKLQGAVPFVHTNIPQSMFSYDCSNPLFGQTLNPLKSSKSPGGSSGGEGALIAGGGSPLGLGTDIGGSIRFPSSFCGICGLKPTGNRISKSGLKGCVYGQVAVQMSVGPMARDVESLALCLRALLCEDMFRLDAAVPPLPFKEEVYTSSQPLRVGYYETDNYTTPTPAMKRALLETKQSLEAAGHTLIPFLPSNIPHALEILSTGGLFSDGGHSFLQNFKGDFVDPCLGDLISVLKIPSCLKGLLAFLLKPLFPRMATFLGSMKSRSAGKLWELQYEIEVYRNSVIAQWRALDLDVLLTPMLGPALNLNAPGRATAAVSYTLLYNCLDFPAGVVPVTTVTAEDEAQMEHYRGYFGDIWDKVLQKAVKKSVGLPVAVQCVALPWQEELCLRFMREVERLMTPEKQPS
The following applies: read-out: FAAH IC50, Cat; brain microsome preparations.

Results on 8 compounds are retold here after US11873288B2, “Inhibitors for soluble epoxide hydrolase (sEH) and fatty acid amide hydrolase (FAAH)” (The Regents of the University of California, priority 2016, dated 2024).

Turning to `COc1ccc(NC(=O)N2CCC(Cc3cccc(Oc4ccc(C(F)(F)F)cn4)c3)CC2)cc1` [Compound B-9, N-(4-methoxyphenyl)-4-(3-((5-(trifluoromethyl)pyridin-2-yl)oxy)benzyl) piperidine-1-carboxamide], at hFAAH [1], the dissociation constant Kd is 0.7 ± 0.27 nM and the “hFAAH k2” value was 0.26 ± 0.03 min⁻¹. In addition, the “increase in potency towards FAAH” value at hFAAH [2] (relative to B-5) was determined as 32 fold.
For the compound `COc1ccc(NC(=O)N2CCC(c3nc(-c4ccccc4)cs3)CC2)cc1` [Compound B-10, N-(4-methoxyphenyl)-4-(4-phenylthiazol-2-yl)piperidine-1-carboxamide], the half-maximal inhibitory concentration (IC50) on hsEH stood at 570 ± 170 nM; on hFAAH [2], 250 nM. The compound also showed an equilibrium dissociation constant (Kd) at hFAAH [1] of 750 ± 20 nM. Also, the “hFAAH k2” value at hFAAH [1] was determined as 0.55 ± 0.02 min⁻¹.
For the compound `O=C(Nc1ccc(OC(F)(F)F)cc1)N[C@H]1CC[C@H](Oc2ccc(C(=O)O)cc2)CC1` [t-TUCB, trans-4-{4-[3-(4-trifluoromethoxyphenyl)-ureido]cyclohexyloxy}benzoic acid], the half-maximal inhibitory concentration (IC50) is more than 10000 nM against MAGL, 54 nM at sEH and more than 1000 nM on FAAH.
For the compound `O=C(Nc1cccnc1)N1CCC(Cc2cccc(Oc3ccc(C(F)(F)F)cn3)c2)CC1` [PF-3845], the IC50 on hFAAH [2] was 0.4 nM; at FAAH, less than 0.1 nM.
Take `COc1ccc(NC(=O)N2CCC(Cc3cnc4ccccc4c3)CC2)cc1` [Compound B-5, N-(4-methoxyphenyl)-4-(quinolin-3-ylmethyl)piperidine-1-carboxamide]: on hsEH, the 50% inhibitory concentration (IC50) was 130 ± 40 nM and the “increase of activity/potency towards sEH” value came to 4 fold. On hFAAH [1], the Kd came to 24 ± 4 nM and the “hFAAH k2” value amounted to 0.37 ± 0.03 min⁻¹. Moreover, the IC50 at hFAAH [2] was determined as 32 nM.
`COc1ccc(NC(=O)N2CCC(Cc3ccc4ccccc4c3)CC2)cc1` [Compound B-8, N-(4-methoxyphenyl)-4-(naphthalen-2-ylmethyl)piperidine-1-carboxamide] gave a half-inhibitory concentration (IC50) at hsEH of 120 ± 30 nM. In addition, at hFAAH [1], the affinity, expressed as Kd, was 18 ± 4 nM and the “hFAAH k2” value came out at 0.26 ± 0.03 min⁻¹. Moreover, the IC50 on hFAAH [2] was 7.4 nM.
`O=C(Nc1ccc(OC(F)(F)F)cc1)N[C@H]1CC[C@H](Oc2ccc(C(=O)OCc3ccccc3)cc2)CC1` [Compound A-14, benzyl 4-((trans-4-(3-(4-(trifluoromethoxy)phenyl)ureido)cyclohexyl)oxy) benzoate]: the results for the IC50 against MAGL and on FAAH were more than 10000 nM and more than 1000 nM, respectively.
Regarding `O=C(Nc1ccc(OC(F)(F)F)cc1)N[C@H]1CC[C@H](Oc2ccc(O)cc2)CC1` [Compound A-21, trans-1-(−4-(4-hydroxy-phenoxy)cyclohexyl)-3-(4-(trifluoromethoxy)phenyl)urea], the half-inhibitory concentration (IC50) on MAGL is more than 10000 nM; at FAAH, 130 nM.
